Experimental data published in US9339509B2, “Methods of use to orally and topically treat acne and other skin conditions by administering a 19-nor containing vitamin D analog with or without a retinoid” (Wisconsin Alumni Research Foundation, priority 2006, dated 2016).
“Also recorded” adds a separate entry of the source.

Assays:
Assay type in all cases: in vivo
[1] = tested on: Rhino mouse; assay: Comedolytic effect of oral administration to the Rhino mouse (comedone area); conditions: for comedone area (FIG. 14) / comedone area (FIG. 12) / comedone area (FIG. 13): oral daily 24 days
Excerpt: (§1) Rhino mice were used to topically and orally test the compounds and compositions of the invention. The Rhino mouse is a well-established animal model used to study the comedolytic effects of anti-acne agents including retinoids. (See Boulcier M et al., Experimental Models in Skin Pharmacology, 1990, In Pharmacological Reviews 42:127-15). Mirshahpanah and Maibach, 2007, Cutaneous and Ocular Toxicology 26:195-202). The Rhino mouse model was used to study the therapeutic potential of 2-Methylene-19-nor-20(S)-1α-hydroxy-bishomopregnacalciferol (2MBisP), 19-Nor-26,27-dimethylene-20(S)-2-methylene-1α,25-dihydroxyvitamin D3 (CAGE-3), NEL, 24R-2MD2, Vit-III (17-20E), 2MPregna, 2MP, 20R-2MbisP, 2MTrisP, FF-44, FF-55, HPBS, VD-03 and atRA.
(§2) Animals and dose administration. Rhino mice 6-10 weeks old were dosed via the oral and/or topical route. In the majority of studies, the mice were dosed daily. In one topical study, the efficacy of daily versus intermittent (Monday/Wednesday/Friday) dosing was compared. The mice were weighed three times per week and doses were adjusted weekly based on body weight. The topical formulations were applied to the back of the animal in a maximum volume of 110 μL. The topical formulations were made by mixing the APIs with a topical carrier comprising 70 vol % propylene glycol and 30 vol % ethanol or 30 vol % propylene glycol and 70 vol % ethanol, as indicated. The topical vehicle control was the vehicle carrier solution matched to the formulation containing API and vehicle carrier.
(§3) The oral formulation was made by mixing the APIs with Wesson® soybean oil or NeoBee® oil. The oral dose was delivered to the back of the mouth of each mouse. Mice were sacrificed 4 hours after the final oral dose and 72 hours after the final topical dose. At sacrifice, the dorsal skin was collected for histological studies.
(§4) Comedolytic effect. The extent of the comedolytic effect (i.e., efficacy) was assessed by measuring the average area of the comedones, whereby the smaller the area, the larger the effect. The comedone area was determined by histological analysis of tissue sections based on a method developed in our lab (see FIG. 2). Skin was fixed overnight in 4% paraformaldehyde at 4 deg. C. with gentle agitation and dehydrated the next day into 100% methanol. Samples were embedded in paraffin and a total of nine 10 micron sections 150 microns apart were prepared from each Rhino mouse. Five of the nine sections were digitally imaged (6× magnification) for comedone analysis using Metamorph Imaging Software (trace function). The perimeter of each comedone on the images taken from the 5 sections was then traced using a Wacom Intuos 3 Graphics Tablet interfaced with the software. The number of pixels comprising the area of each individual comedone was obtained and transferred to an Excel spreadsheet, and the mean number of pixels per comedone was obtained for each Rhino mouse. For comedones that were completely healed (area=0) a pixel value approaching 0 (<10) was entered into the spreadsheet. The individual comedone area average for each mouse was then used to calculate the treatment group mean. Results in the figures are expressed in terms of mean±standard error of the mean.
Preparation of oral dosing solutions containing 2MBisP, CAGE-3, 24R-2MD2, VitIII (17-20E) and NEL. Separate concentrated stocks of 2MBisP, CAGE-3, 24R-2MD2, VitIII (17-20E) and NEL were obtained in ethanol. The concentration was determined spectrophotometrically using a molar extinction coefficient=42,000 and a λmax=252.7. […] The final dose was delivered in ≦50 μL of oil.
Preparation of oral atRA dosing formulation. A concentrated stock solution containing atRA was prepared in dichloromethane. The atRA concentrated stock solution was diluted into ethanol. The concentration of atRA in that diluted stock solution was determined spectrophotometrically, whereby the molar extinction coefficient=45,200 and λmax=350. The purity of atRA was determined to be >99% by HPLC. […]

[2] = tested on: Rhino mouse; assay: Comedolytic effect of topical application to the Rhino mouse (comedone area); conditions: for comedone area (FIG. 5): 30 vol % ethanol/70% propylene glycol; for comedone area relative to vehicle-treated group (FIG. 11): 72 h after final dose; for comedone area vs vehicle control (FIG. 3, FIG. 4): topical 3 weeks, 30 vol % ethanol/70 vol % propylene glycol
Excerpt: as §1, §2, §3, §4
Preparation of topical formulations containing 2MBisP, CAGE-3, 24R-2MD2, VitIII (17-20E), NEL, VD-03, 2MPregna, 2MP, 20R-2MBisP, 2MTrisP, FF-44, FF-55, and HPBS. Separate concentrated ethanolic stocks of 2MBisP, CAGE-3, 24R-2MD2, VitIII (17-20E) and NEL were diluted to a final concentration containing 70 vol % propylene glycol and 30 vol % ethanol or 30 vol % propylene glycol and 70 vol % ethanol as the excipient carrier system. The mixture was thoroughly mixed. The topical dosing formulation delivered the desired dosing amount of drug on a per kilogram body weight basis. A dose ranging from 100-110 μL in volume was administered to the back of the mouse. An average weight of 24 or 30 g/mouse was assumed in dose volume calculations. […]

[3] = tested on: Rhino mouse; assay: Combination of oral atRA and topical 2MBisP in the Rhino mouse (comedone area, skin morphology)
Protocol: as §2, §3
as §4, with “the mean. […]” for “the mean.”
Preparation of oral atRA dosing formulation. […] The concentration of atRA in that diluted stock solution was determined spectrophotometrically, whereby the molar extinction coefficient=45,200 and λmax=350. The purity of atRA was determined to be >99% by HPLC. […]

[4] = daily topical 3 weeks, 70 vol % ethanol/30 vol % propylene glycol, 220 nmole/kgBW/day

**Q.** Which “comedone area (FIG. 14)” value ([1]; 7.5 nmole/kgBW/day) does the source give for `C=C1[C@H](O)CC(=C/C=C2\CCC[C@]3(C)C([C@H](C)CCC[C@H](C)O)CC[C@@H]23)C[C@H]1O` (stereo partly drawn) [NEL, 2-methylene-(20R,25S)-19,26-dinor-1α,25-dihydroxyvitamin D3] here?
**A.** no significant reduction in comedone area

**Q.** What about the “comedone area (FIG. 14)” value ([1]; 25 nmole/kgBW/day) of the same compound?
**A.** no significant reduction in comedone area

**Q.** And the response vs control in vivo at 0.0075 µmol/kg ([2]; Mus musculus, 504 h, daily topical ca. 3 weeks, 70 vol % ethanol/30 vol % propylene glycol, dose 7.5 nmol/kg, mean ± SEM, read-out: Comedone Area (% Vehicle))?
**A.** 156 ± 34%

**Q.** What about the response vs control in vivo at 0.025 µmol/kg ([2]; Mus musculus, 504 h, daily topical ca. 3 weeks, 70 vol % ethanol/30 vol % propylene glycol, dose 25 nmol/kg, mean ± SEM, read-out: Comedone Area (% Vehicle)) of the same compound?
**A.** 145 ± 24%

**Q.** With `CC1=C(/C=C/C(C)=C/C=C/C(C)=C/C(=O)O)C(C)(C)CCC1` [atRA, all-trans-retinoic acid, reference compound] as the compound, how does the “comedone size vs vehicle control (FIG. 2)” value ([1]; oral, 3 weeks, 0.83 μmole/kgBW) read?
**A.** insignificant reduction in comedone size

**Q.** And the “comedone size vs vehicle control (FIG. 2)” value ([1]; oral, 3 weeks, 16.6 μmole/kgBW)?
**A.** maximal reduction in comedone size

**Q.** What about the “comedone area, dose dependence (FIG. 2)” value ([1]; oral, 3 weeks, various doses) of the same compound?
**A.** dose-dependent reduction in comedone area

**Q.** And the “comedone area vs vehicle control group (FIG. 15)” value ([3]; atRA alone orally 24 days (830 nmole/kgBW/day) with topical vehicle 21 days)?
**A.** lacked significant efficacy

**Q.** What about the “skin morphology vs vehicle control, H&E sections (FIG. 16)” value ([3]; female Rhino mice, atRA alone orally 830 nmole/kgBW/day in soybean oil) of the same compound?
**A.** did not alter skin morphology significantly

**Q.** With `C=C1[C@H](O)CC(=C/C=C2\CCC[C@]3(C)C([C@@H](C)CC)CC[C@@H]23)C[C@H]1O` (stereo partly drawn) [2MBisP, 2-methylene-19-nor-20(S)-1α-hydroxy-bishomopregnacalciferol] as the compound, how does the “comedone area (FIG. 12)” value ([1]; 522 nmole/kgBW/day) read?
**A.** reduction in the comedone area

**Q.** And the “comedone area vs vehicle control group (FIG. 15)” value ([3]; 2MBisP alone topically 21 days (0.22 μmole/kgBW/day, 30 vol % ethanol/70 vol % propylene glycol) with oral vehicle 24 days)?
**A.** lacked significant efficacy

**Q.** What about the “skin morphology, H&E sections (FIG. 16)” value ([3]; female Rhino mice, 2MBisP alone topically 0.22 μmole/kgBW/day, 30% ethanol/70% propylene glycol) of the same compound?
**A.** did not alter skin morphology significantly

**Q.** And the response vs control in vivo at 0.022 µmol/kg ([2]; Mus musculus, 504 h, daily topical ca. 3 weeks, 70 vol % ethanol/30 vol % propylene glycol, dose 22 nmol/kg, mean ± SEM, read-out: Comedone Area (% Vehicle))?
**A.** 97 ± 9%

**Q.** What about the response vs control in vivo at 0.069 µmol/kg ([2]; Mus musculus, 504 h, daily topical ca. 3 weeks, 70 vol % ethanol/30 vol % propylene glycol, dose 69 nmol/kg, mean ± SEM, read-out: Comedone Area (% Vehicle)) of the same compound?
**A.** 127 ± 12%

**Q.** What about the response vs control in vivo at 0.217 µmol/kg ([2]; Mus musculus, 504 h, daily topical ca. 3 weeks, 70 vol % ethanol/30 vol % propylene glycol, dose 217 nmol/kg, mean ± SEM, read-out: Comedone Area (% Vehicle)) of the same compound?
**A.** 49 ± 3%

**Q.** And the response vs control in vivo at 0.694 µmol/kg ([2]; Mus musculus, 504 h, daily topical ca. 3 weeks, 70 vol % ethanol/30 vol % propylene glycol, dose 694 nmol/kg, mean ± SEM, read-out: Comedone Area (% Vehicle))?
**A.** 35 ± 4%

**Q.** What about the response vs control in vivo at 2.187 µmol/kg ([2]; Mus musculus, 504 h, daily topical ca. 3 weeks, 70 vol % ethanol/30 vol % propylene glycol, dose 2187 nmol/kg, mean ± SEM, read-out: Comedone Area (% Vehicle)) of the same compound?
**A.** 32 ± 7%

**Q.** What about the “comedone area (FIG. 5)” value ([2]; daily topical 3 weeks, 220 nmole/kgBW/day) of the same compound?
**A.** no effect

**Q.** And the “comedone area (FIG. 5)” value ([2]; daily topical 3 weeks, 653 nmole/kgBW/day)?
**A.** near-maximal reduction in comedone area

**Q.** And the “comedone area (FIG. 7)” value ([2]; daily topical 3 weeks, 70 vol % ethanol/30 vol % propylene glycol, 22 nmole/kgBW/day)?
**A.** no effect

**Q.** And the “comedone area relative to vehicle-treated group (FIG. 8, 9, 10)” value ([2]; daily topical 3 weeks, 70 vol % ethanol/30 vol % propylene glycol, 217 nmole/kgBW/day)?
**A.** significant reduction in comedone area

**Q.** What about the “comedone area (FIG. 7)” value [2, 4] of the same compound?
**A.** significant reduction in comedone area

**Q.** And the “reduction in comedone area (FIG. 6)” value [2, 4]?
**A.** > 50%

**Q.** And the “comedone area (FIG. 6)” value ([2]; daily topical 3 weeks, 70 vol % ethanol/30 vol % propylene glycol, 653 nmole/kgBW/day)?
**A.** greater reduction in comedone area as compared to the lower dose

**Q.** And the “comedone area relative to vehicle-treated group (FIG. 8)” value ([2]; daily topical 3 weeks, 70 vol % ethanol/30 vol % propylene glycol, 694 nmole/kgBW/day)?
**A.** significant reduction in comedone area

**Q.** What about the “comedone area relative to vehicle-treated group (FIG. 11)” value ([2]; topical 217 nmole/kgBW daily (total of 22 doses), 70 vol % ethanol/30 vol % propylene glycol) of the same compound?
**A.** significant reduction in comedone area

**Q.** What about the “comedone area relative to vehicle-treated group (FIG. 11)” value ([2]; topical 217 nmole/kgBW intermittently Monday, Wednesday, Friday (total of 10 doses), 70 vol % ethanol/30 vol % propylene glycol) of the same compound?
**A.** significant reduction in comedone area

**Q.** And the “comedone area vs vehicle control (FIG. 3, FIG. 4)” value ([2]; 5.4 μg/day (ca. 800 nmole/kgBW/day))?
**A.** reduction in the comedone area; also recorded: reduced comedone area

**Q.** And the “potency in the reduction of comedone area relative to 20R-2MBisP” value ([2]; topical, 70 vol % ethanol/30 vol % propylene glycol, more potent than the 20R compound)?
**A.** approximately ½

**Q.** What does the source list for `C=C1[C@H](O)CC(=C/C=C2\CCC[C@]3(C)[C@@H]([C@@H](C)CCCC4(O)CCCC4)CC[C@@H]23)C[C@H]1O` [CAGE-3, 19-nor-26,27-dimethylene-20(S)-2-methylene-1α,25-dihydroxyvitamin D3]?
**A.** comedone area (FIG. 12) ([1]; 68 pmole/kgBW/day): reduction in the comedone area; comedone area vs vehicle control (FIG. 3, FIG. 4) ([2]; 0.9 ng/day (ca. 100 pmole/kgBW/day), reduced to 0.45 ng/day on day 10 and 0.22 ng/day on day 19): reduction in the comedone area; also recorded: reduced comedone area

**Q.** `C=C1[C@H](O)CC(=C/C=C2\CCC[C@]3(C)/C(=C(\C)CCCC(C)(C)O)CC[C@@H]23)C[C@H]1O` [VitIII (17-20E), 2-methylene-1α,25-dihydroxy-(17E)-17(20)-dehydro-19-nor-vitamin D3] was tested. Which “comedone area (FIG. 13)” value ([1]; 24 nmole/kgBW/day) did it give?
**A.** no significant reduction in comedone area

**Q.** And the response vs control in vivo at 0.024 µmol/kg ([2]; Mus musculus, 504 h, daily topical ca. 3 weeks, 70 vol % ethanol/30 vol % propylene glycol, dose 24 nmol/kg, mean ± SEM, read-out: Comedone Area (% Vehicle))?
**A.** 116 ± 15%

**Q.** What does the source list for `C=C1[C@H](O)CC(=C/C=C2\CCC[C@]3(C)C([C@H](C)/C=C/[C@@H](C)C(C)(C)O)CC[C@@H]23)C[C@H]1O` (stereo partly drawn) [24R-2MD2, 2-methylene-19-nor-(24R)-1α,25-dihydroxyvitamin D2]?
**A.** comedone area (FIG. 13) ([1]; 2.3 nmole/kgBW/day): no significant reduction in comedone area; response vs control in vivo at 0.0023 µmol/kg ([2]; Mus musculus, 504 h, daily topical ca. 3 weeks, 70 vol % ethanol/30 vol % propylene glycol, dose 2.3 nmol/kg, mean ± SEM, read-out: Comedone Area (% Vehicle)): 176 ± 55%
